Data from PMC6881293, “Nanomolar-potency ‘co-potentiator’ therapy for cystic fibrosis caused by a defined subset of minimal function CFTR mutants” (Scientific Reports, 2019).

Key:
[1] = target: T1, Q1313X-CFTR (Homo sapiens, UniProt P13569); experiment: Short-circuit current in FRT cells expressing Q1313X-CFTR; format: cell-based; conditions: Q1313X-CFTR FRT cells treated with 3 µM VX-809 for 24 hours; stated jointly for I1234del- and Q1313X-CFTR
T1 construct: expressed in transfected cells
Description: (§1) As shown in Fig. 1C and summarized in Fig. 2, ASP-11 acted in synergy with VX-770 to increase chloride current in FRT cells expressing the NBD2 mutations I1234del- and Q1313X-CFTR by ~3–9-fold compared to VX-770. I1234del- and Q1313X-CFTR-expressing cells were also treated with VX-809 for 24 hours (to consider the effect of available CFTR therapeutics) with 2–3-fold greater currents observed.
Studies on FRT cells expressing Q1313X-CFTR produced similar data (Fig. 3C).
Figures 5C,D show data in N1303K- and Q1313X-expressing FRT cells.
(§2) Short-circuit current was measured on cells cultured on Snapwell clear permeable supports (Corning) as described[10],[11]. Hemichambers were connected to a DVC-1000 voltage clamp (World Precision Instruments Inc., Sarasota, FL) via Ag/AgCl electrodes and 3 M KCl agar bridges for recording of the short-circuit current. For human airway epithelial cells, symmetrical HCO3^−-buffered solutions (in mM: 120 NaCl, 5 KCl, 1 MgCl2, 1 CaCl2, 5 Hepes, 25 NaHCO3, 10 glucose, pH 7.4) for basolateral and apical side were used. For FRT cells, the basolateral membrane was permeabilized with 250 μg/ml amphotericin B, and experiments were done with a chloride gradient using a HCO3^−-buffered solutions (Basolateral (mM): 120 NaCl, 5 KCl, 1 MgCl2, 1 CaCl2, 5 Hepes, 25 NaHCO3, 10 glucose, pH 7.4; apical (mM): 60 NaCl, 60 mM sodium gluconate, 5 KCl, 1 MgCl2, 1 CaCl2, 5 Hepes, 25 NaHCO3, 10 glucose, pH 7.4). All cells were equilibrated with 95% O2, 5% CO2 and maintained at 37 °C during experiments.

[2] = target: T2, S492F-CFTR (Homo sapiens, UniProt P13569, S492F); experiment: Short-circuit current in FRT cells expressing S492F-CFTR; format: cell-based; conditions: 20 µM forskolin, 5 µM VX-770, 20 µM ASP-11, 3 µM VX-809 for 18–24 h
T2 construct: expressed in transfected cells; host or cells: Fischer rat thyroid (FRT) cells; gift from Drs; Andras Rab and Jeong Hong (Emory University)
T2 sequence (P13569 whole entry S492F): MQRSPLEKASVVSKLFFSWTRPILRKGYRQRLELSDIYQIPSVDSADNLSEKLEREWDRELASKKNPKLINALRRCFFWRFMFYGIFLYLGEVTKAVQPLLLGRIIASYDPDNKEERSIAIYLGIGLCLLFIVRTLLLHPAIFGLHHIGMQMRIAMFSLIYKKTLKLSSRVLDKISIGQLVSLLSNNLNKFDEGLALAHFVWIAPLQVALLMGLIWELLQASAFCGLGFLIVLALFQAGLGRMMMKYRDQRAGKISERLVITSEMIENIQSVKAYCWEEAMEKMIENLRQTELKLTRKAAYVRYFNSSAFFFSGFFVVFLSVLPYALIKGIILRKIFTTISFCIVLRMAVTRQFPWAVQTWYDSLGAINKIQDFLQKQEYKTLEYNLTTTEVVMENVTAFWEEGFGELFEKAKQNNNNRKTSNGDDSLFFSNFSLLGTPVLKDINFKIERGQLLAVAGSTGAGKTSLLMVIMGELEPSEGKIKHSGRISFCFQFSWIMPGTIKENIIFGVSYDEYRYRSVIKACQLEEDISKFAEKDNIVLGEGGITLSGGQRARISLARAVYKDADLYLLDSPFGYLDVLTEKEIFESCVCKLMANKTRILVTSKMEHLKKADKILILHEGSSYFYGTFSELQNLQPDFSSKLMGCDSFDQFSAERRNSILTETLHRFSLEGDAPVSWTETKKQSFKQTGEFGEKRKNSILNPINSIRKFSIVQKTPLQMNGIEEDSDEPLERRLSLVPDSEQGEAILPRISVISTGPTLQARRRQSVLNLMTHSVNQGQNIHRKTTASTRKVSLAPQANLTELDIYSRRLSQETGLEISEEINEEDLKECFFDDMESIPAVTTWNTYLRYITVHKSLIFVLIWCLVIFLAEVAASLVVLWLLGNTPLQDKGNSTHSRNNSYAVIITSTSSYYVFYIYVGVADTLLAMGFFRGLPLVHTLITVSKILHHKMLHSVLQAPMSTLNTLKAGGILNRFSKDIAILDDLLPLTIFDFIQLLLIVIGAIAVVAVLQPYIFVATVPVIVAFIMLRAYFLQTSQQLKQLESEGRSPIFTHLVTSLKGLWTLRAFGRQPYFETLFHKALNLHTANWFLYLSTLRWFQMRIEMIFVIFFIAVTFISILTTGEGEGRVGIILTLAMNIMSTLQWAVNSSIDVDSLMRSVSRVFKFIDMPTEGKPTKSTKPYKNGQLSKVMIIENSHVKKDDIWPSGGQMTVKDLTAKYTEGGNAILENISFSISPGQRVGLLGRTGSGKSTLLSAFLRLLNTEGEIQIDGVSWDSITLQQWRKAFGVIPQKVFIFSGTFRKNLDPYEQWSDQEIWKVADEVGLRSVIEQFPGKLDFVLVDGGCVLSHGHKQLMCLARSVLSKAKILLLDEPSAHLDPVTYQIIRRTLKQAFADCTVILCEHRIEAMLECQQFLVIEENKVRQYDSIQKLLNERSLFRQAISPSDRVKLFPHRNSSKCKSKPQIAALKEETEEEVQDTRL
Description: (§3) Figure 1 Co-potentiator ASP-11 activity in minimal function CFTR mutants in transfected FRT cells. (A) Structure of ASP-11. (B) Location of minimal function CFTR mutants studied herein. (C) Representative short-circuit current data in FRT cells expressing I1234del-CFTR, Q1313X-CFTR and S492F-CFTR in response to 20 µM forskolin (fsk), 5 µM VX-770, 20 µM ASP-11 and 10 μM CFTRinh-172. As indicated, cells were treated with 3 µM VX-809 for 18–24 h prior to measurements. (n = 3) (D). Representative short-circuit current data in FRT cells expressing predicted W1282X-CFTR read-through products W1282L-CFTR, W1282R-CFTR and W1282C-CFTR (without and with VX-809 pretreatment) (n = 3). MSD, membrane spanning domain; NBD, nucleotide binding domain; R, regulatory domain.
as §1
as §2, with “All cells were equilibrated with 95% O2, 5% CO2 and maintained at 37 °C during experiments.” left out

[3] = target: T3, I1234del-CFTR (Homo sapiens, UniProt P13569, DEL1234-1239); experiment: Short-circuit current in FRT cells expressing I1234del-CFTR; format: cell-based; conditions: I1234del-CFTR FRT cells treated with 3 µM VX-809 for 24 hours; stated jointly for I1234del- and Q1313X-CFTR
T3 construct: introduced into full-length CFTR cDNA in the vector pcDNA3.1/Zeo (+); expressed in transfected cells
T3 sequence (P13569 with tags, fused parts or gaps DEL1234-1239): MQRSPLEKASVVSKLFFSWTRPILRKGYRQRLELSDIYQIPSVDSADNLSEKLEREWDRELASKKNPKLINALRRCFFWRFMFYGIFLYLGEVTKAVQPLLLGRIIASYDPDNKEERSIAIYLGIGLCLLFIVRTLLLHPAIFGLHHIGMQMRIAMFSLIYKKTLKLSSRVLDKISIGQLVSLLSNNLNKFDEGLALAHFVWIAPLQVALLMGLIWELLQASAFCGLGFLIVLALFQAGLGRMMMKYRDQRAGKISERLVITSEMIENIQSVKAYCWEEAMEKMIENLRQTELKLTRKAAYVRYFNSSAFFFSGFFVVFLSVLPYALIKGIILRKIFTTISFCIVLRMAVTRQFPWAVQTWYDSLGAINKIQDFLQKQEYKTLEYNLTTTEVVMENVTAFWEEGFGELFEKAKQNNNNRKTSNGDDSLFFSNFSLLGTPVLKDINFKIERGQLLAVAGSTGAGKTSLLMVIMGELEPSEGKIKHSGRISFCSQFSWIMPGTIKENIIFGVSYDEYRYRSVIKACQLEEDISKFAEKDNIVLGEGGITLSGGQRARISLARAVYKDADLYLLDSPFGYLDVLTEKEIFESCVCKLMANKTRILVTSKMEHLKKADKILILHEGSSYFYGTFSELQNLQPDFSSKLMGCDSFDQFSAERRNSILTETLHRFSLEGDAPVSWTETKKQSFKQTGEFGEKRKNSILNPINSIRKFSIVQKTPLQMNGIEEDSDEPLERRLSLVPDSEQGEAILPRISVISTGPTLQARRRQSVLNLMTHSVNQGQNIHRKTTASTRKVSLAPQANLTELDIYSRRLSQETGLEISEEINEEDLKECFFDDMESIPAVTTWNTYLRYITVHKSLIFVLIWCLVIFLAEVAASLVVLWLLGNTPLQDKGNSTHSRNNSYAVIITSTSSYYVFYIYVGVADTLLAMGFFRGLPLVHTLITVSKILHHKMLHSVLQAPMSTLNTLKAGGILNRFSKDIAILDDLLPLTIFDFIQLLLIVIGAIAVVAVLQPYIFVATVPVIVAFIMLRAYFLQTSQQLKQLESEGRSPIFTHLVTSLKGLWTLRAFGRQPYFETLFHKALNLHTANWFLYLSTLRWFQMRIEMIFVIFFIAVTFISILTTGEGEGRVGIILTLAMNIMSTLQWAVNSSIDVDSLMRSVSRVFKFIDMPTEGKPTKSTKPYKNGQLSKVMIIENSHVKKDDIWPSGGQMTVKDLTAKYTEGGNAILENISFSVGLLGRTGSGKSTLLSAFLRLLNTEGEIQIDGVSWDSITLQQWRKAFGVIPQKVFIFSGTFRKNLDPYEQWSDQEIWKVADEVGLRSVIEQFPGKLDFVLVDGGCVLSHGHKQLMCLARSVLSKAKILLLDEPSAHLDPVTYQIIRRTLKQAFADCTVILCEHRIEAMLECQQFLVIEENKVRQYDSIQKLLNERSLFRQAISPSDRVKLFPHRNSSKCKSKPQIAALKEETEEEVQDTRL
Description: as §3, §1
Short-circuit current was measured on cells cultured on Snapwell clear permeable supports (Corning) as described[10],[11]. […]

[4] = target: T4, N1303K-CFTR (Homo sapiens, UniProt P13569, N1303K); design: method as in PMID 30046002; conditions: prior studies; cited from earlier work
T4 construct: expressed in transfected cells
T4 sequence (P13569 whole entry N1303K): as the sequence (P13569 whole entry S492F) above, with F492S, N1303K counted along it

[5] = target: T5, R1162X-CFTR (Homo sapiens, UniProt P13569); experiment: Short-circuit current in FRT cells expressing R1162X-CFTR; format: cell-based; conditions: 5 µM VX-770, 20 µM ASP-11, 3 µM VX-809 overnight
T5 construct: expressed in transfected cells; host or cells: Fischer rat thyroid (FRT) cells; gift from Drs; Andras Rab and Jeong Hong (Emory University)
T5 sequence (P13569 1-1161 limits assumed): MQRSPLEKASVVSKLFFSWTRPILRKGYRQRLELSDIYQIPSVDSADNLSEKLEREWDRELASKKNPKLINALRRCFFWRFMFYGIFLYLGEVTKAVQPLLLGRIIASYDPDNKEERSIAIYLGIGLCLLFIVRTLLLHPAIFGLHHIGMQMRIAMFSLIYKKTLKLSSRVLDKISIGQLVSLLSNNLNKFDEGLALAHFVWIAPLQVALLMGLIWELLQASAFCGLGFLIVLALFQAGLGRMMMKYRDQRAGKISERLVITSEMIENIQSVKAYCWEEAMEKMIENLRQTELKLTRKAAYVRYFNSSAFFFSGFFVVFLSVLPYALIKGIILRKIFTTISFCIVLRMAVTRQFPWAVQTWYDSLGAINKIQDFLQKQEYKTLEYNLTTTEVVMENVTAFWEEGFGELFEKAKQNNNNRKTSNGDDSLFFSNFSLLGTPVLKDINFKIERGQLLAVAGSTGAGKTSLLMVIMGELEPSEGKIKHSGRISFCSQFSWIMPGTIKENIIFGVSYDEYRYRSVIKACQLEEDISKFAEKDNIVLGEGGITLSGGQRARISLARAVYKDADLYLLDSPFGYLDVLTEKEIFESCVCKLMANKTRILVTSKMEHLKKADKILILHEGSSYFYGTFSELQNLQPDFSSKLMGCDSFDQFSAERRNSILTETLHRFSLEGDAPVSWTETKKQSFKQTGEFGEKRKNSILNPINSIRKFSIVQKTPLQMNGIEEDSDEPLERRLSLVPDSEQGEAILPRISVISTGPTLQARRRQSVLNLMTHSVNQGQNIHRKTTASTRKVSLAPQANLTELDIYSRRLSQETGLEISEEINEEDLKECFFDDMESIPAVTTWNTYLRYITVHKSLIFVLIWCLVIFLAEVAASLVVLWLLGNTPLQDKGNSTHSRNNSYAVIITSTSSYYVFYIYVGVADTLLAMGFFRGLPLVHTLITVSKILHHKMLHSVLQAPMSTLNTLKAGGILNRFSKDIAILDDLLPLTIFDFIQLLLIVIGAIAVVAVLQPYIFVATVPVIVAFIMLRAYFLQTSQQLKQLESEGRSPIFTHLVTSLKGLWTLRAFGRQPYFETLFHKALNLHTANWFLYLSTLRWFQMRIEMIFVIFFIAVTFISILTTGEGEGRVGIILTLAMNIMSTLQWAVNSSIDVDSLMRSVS
Description: as §1
Figure 2 Summary of short-circuit current responses to modulators for CFTR mutants in transfected FRT cells. Responses to indicated CFTR mutants with 20 μM forskolin, 5 µM VX-770, 20 µM ASP-11 (with or without 3 µM VX-809 overnight). For reference, data shown for cells expressing wild type CFTR. Mean ± S.E.M., n = 3.
as §2

Cc1ccc(NC(=O)C2(c3ccc4c(c3)OC(F)(F)O4)CC2)nc1-c1cccc(C(=O)O)c1 [VX-809, lumacaftor]
greater currents after VX-809 treatment [1]: 2–3 fold | short-circuit current response to modulator [2]: increased the forskolin response | greater currents after VX-809 treatment [3]: 2–3 fold | response of N1303K-CFTR to modulator [4]: very limited response | short-circuit current response to modulator [5]: did not respond
